# In patent US9913817B2, “Methods for preventing or reducing colon carcinogenesis” (Nogra Pharma Limited, priority 2008, dated 2018):
# Columns and labels:
# Format in all cases: cell-based
# [1] = system: HCT116 A2.1 cells; experiment: EGFP-based mutation rate / replication fidelity assay (Example 3)
# Protocol: A EGFP-based assay to determine the changes in mutation rate upon incubation with various concentrations of the compounds was used to test whether compounds improve the replication fidelity. Briefly, 1×10^3 EGFP negative HCT116 A2.1 cells were sorted into 24-well plates on a FACS Aria. 24 hours later cells were treated with the compounds for a period of 7 days and the mutant fraction was measured by flow cytometry.
# [2] = system: HCT116 A2.1 cells; experiment: EGFP-based mutation rate assay at a (CA)13 repeat (Example 4); conditions: FIG. 4
# Protocol: A EGFP-based assay similar to Example 3 was used to determine the changes in mutation rate upon incubation with various concentrations of disclosed compounds and to test whether the compounds improve the replication fidelity. A EGFP based assay was used to determine the changes in mutation rate at a (CA)13 repeat upon incubation with various concentrations of the compounds. Briefly, 1×10^3 EGFP negative HCT116 A2.1 cells were sorted into 24-well plates on a FACS Aria. 24 hours later cells were treated with the compounds for a period of 7 days. The total cell number (c) and the EGFP-positive fraction (mutant fraction (MF)) were analyzed by flow cytometry. The mutation rate (m/(CA)13/generation (gen) was estimated by m=MF/(gen+1) and gen=log 2(c/1000×cloning efficiency). The transient mutant (M1) and definitive mutant (M2) cells were distinguished.
# [3] = system: HCT116 cells; experiment: Cell cycle analysis by BrdU staining, HCT116; conditions: 10 mM-40 mM; 72 hour treatment
# Protocol: BrdU staining was used to analyze cell cycle changes in HCT116 and HT29 cells upon 72 hour treatment with compound 39. Data represent the mean values of 3 independent experiments (* indicates a p<0.05 compared to control)
# [4] = system: superoxide (O2−) released by activated neutrophils (PMN); experiment: Superoxide scavenging, O2− assay with PMA-activated neutrophils, 90 min time course (Example 2); conditions: at the investigated concentrations; 100 nM PMA; measured every 15 min for 90 min; FIG. 2A/2B
# Protocol: Compounds 14 and 34 were tested for their potential to scavenge superoxide (O2^−) released by activated neutrophils (PMN) using a standardized O2^− assay, similar to Example 1. Activated neutrophils (PMN) were used as O2^− donors. Briefly, 1×10^6 freshly isolated neutrophils were activated with 100 nM phorbol-myristate-acetate (PMA). The O2^− release was measured every 15 min for a 90 min period by lucigenin amplified chemiluminescence on a luminometer. Either non-activated PMNs or activated PMNs incubated with superoxide dismutase (2000 U/ml, SOD) was used as a control. Experiments were carried out in triplicates
smiles,measurement,setting,value
"CCOC(Cc1ccc(N)cc1)C(=O)O (racemic) [compound 39, (±)-2-ethoxy-3-(4′-aminophenyl) propionic acid]",cell growth (in words),"[1]; 20 mM, 7 days",reduced cell growth
same,effect on M1 (in words),"[1]; 20 mM, FIG. 3C, comparable to the effect of aspirin",increase of M1
same,effect on mutant fraction M1 or M2 (in words),"[1]; 7 days, FIG. 3C",did not reduce the mutant fraction M1 or M2
same,number of M1 (transient mutant) cells (in words),"[2]; 10 mM up to 40 mM, p<0.05",significantly lowered the number of M1 cells
same,permanent mutant M2 population (in words),[2]; 40 mM,significant reduction
same,cell cycle distribution (in words),[3],did not induce a significant change
COc1ccc(N)cc1C(=O)NO [compound 14],superoxide scavenging properties (in words),[4],significant scavenging properties
CC1(C)OC(=O)c2cc(N)ccc2O1 [compound 28],changes in mutation rate (in words),"[1]; concentrations up to 1 mM, FIG. 3B",does not appear to cause significant changes
